In experiment [1] the target is T1, mP2X7R (full-length wild-type mouse P2X7 receptor) (Mus musculus, UniProt Q9Z1M0).
T1 construct: gene P2rx7; full-length wild-type homotrimer; untagged in Xenopus oocytes for TEVC
T1 sequence (Q9Z1M0 1-595): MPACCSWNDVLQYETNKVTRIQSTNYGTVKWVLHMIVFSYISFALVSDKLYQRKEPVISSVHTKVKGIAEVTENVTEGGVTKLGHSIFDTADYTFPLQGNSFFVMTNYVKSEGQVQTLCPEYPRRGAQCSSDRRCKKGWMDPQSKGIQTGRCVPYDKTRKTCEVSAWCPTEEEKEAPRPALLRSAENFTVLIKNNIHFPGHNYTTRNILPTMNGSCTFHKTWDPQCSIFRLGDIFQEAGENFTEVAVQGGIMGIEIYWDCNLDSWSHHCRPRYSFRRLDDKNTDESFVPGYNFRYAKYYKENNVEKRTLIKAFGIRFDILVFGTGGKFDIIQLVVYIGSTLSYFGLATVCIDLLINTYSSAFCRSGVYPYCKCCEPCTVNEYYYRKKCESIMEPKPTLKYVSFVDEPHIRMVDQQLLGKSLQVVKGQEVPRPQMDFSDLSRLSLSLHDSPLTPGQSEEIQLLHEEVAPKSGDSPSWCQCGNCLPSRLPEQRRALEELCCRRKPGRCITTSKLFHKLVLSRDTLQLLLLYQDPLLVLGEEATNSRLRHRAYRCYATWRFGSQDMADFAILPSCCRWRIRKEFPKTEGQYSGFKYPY
As to the kind of experiment: calcium influx (Fluo-4), […]1 cells. It counts as cell-based.

Experiment [2] addresses T2, rP2X7R (full-length wild-type rat P2X7 receptor) (Rattus norvegicus, UniProt Q64663).
T2 construct: gene P2rx7; full-length wild-type homotrimer; untagged in Xenopus oocytes for TEVC
T2 sequence (Q64663 1-595): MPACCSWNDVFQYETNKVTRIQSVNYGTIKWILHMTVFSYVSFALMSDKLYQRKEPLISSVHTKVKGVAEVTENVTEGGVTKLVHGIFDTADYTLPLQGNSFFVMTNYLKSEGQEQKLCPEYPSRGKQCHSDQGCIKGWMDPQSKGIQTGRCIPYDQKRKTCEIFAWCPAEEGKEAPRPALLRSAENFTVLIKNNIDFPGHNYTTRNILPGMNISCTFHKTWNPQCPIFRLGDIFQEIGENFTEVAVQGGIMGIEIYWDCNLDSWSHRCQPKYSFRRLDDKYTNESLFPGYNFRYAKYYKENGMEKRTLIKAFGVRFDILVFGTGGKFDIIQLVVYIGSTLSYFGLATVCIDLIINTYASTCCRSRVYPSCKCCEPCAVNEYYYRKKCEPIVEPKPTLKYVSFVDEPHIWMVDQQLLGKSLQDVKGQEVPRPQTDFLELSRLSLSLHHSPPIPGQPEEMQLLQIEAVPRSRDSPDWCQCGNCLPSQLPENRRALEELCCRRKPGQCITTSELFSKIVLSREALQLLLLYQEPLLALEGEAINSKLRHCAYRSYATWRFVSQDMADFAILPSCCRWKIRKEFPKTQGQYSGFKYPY
As to the kind of experiment: calcium influx (Fluo-4), […]1 cells. It counts as cell-based.

Experiment [3] deals with T3, hP2X7R (full-length wild-type human P2X7 receptor) (Homo sapiens, UniProt Q99572).
T3 construct: gene P2RX7; full-length wild-type homotrimer; structures: C-terminal GFP, 3C site and His tag, digested with HRV 3C, from HEK293 / HEK293 GNTI- cells; BLI: biotinylated receptor; TEVC: untagged in Xenopus oocytes; calcium influx: 1321N1 cells; ethidium uptake: HEK293 cells
T3 sequence (Q99572 1-595): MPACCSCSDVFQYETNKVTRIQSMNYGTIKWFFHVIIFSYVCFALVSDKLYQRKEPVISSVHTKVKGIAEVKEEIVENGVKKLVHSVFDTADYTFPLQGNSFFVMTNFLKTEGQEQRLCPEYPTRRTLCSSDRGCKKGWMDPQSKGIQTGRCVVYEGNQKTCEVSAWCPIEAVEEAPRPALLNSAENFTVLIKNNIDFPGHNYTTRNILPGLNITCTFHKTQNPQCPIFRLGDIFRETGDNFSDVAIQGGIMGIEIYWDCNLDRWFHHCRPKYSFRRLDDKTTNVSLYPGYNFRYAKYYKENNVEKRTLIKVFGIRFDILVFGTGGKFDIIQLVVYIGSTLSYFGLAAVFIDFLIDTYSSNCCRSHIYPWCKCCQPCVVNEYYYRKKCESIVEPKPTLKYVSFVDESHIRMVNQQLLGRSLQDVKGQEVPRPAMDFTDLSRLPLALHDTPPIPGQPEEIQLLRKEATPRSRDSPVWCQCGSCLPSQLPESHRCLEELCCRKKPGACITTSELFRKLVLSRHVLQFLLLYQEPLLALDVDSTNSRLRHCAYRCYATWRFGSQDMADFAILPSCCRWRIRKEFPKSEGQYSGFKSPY
The experiment is described as follows: ethidium bromide accumulation, HEK293 cells expressing hP2X7R. In kind it is cell-based. The text has this:
ethidium bromide accumulation, HEK293 cells expressing hP2X7R on hP2X7R (full-length wild-type human P2X7 receptor)

The target in experiment [4] is T4, hP2X4R (human P2X4 receptor) (Homo sapiens, UniProt Q99571).
T4 construct: gene P2RX4; stably expressed in 1321N1 astrocytoma cells by retroviral system
T4 sequence (Q99571 1-388): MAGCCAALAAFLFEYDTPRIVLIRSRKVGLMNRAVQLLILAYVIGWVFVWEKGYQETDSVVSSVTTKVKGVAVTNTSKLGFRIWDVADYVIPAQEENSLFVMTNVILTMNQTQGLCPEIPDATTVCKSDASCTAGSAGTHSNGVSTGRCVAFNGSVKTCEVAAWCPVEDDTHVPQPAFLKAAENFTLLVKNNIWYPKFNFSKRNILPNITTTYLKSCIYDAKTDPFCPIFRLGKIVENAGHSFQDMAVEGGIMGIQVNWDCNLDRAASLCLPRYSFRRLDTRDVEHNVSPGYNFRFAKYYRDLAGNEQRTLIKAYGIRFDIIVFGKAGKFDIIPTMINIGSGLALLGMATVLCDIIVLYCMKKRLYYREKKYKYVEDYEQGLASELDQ
The experiment is described as follows: calcium influx (Fluo-4), […]1 cells. In kind it is cell-based.

The target in experiment [5] is T5, hP2X2R (human P2X2 receptor) (Homo sapiens, UniProt Q9UBL9).
T5 construct: gene P2RX2; stably expressed in 1321N1 astrocytoma cells by retroviral system
T5 sequence (Q9UBL9 1-471): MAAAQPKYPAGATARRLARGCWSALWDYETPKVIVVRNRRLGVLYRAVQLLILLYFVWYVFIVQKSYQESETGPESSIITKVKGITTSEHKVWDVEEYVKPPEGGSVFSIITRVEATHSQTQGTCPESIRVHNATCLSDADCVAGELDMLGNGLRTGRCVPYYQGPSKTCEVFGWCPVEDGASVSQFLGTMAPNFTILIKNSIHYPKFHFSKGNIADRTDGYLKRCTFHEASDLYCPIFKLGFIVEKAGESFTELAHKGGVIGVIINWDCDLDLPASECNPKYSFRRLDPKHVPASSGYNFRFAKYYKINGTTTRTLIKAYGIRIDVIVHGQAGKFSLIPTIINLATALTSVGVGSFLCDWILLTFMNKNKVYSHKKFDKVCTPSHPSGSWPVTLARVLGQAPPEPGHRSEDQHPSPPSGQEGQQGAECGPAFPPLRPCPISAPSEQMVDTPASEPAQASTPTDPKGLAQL
The experiment is described as follows: calcium influx (Fluo-4), […]1 cells. It counts as cell-based.

Experiment [6] deals with T3, hP2X7R (full-length wild-type human P2X7 receptor). The experiment is described as follows: calcium influx (Fluo-4), […]1 cells. In kind it is cell-based. To be noted: agonist BzATP at EC80; allosteric antagonist, classical allosteric site; pH 7.4.
The target in experiment [7] is T6, hP2X3R (human P2X3 receptor, S15V mutant) (Homo sapiens, UniProt P56373, S15V).
T6 construct: gene P2RX3; S15V mutant to prevent fast desensitization; stably expressed in 1321N1 astrocytoma cells by retroviral system
T6 sequence (P56373 1-397 S15V): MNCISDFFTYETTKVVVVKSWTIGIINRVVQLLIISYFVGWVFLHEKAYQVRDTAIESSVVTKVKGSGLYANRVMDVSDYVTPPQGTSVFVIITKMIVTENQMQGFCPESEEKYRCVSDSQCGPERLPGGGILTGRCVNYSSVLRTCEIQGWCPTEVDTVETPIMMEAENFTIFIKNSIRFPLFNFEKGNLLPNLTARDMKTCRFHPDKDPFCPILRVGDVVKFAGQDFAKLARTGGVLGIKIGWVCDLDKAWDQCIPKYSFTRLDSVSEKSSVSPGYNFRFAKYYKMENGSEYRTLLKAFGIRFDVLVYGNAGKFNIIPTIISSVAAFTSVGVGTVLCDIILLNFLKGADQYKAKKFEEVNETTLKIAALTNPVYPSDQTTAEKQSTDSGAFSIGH
As to the kind of experiment: calcium influx (Calcium […]), […]1 cells. In kind it is cell-based.

The target in experiment [8] is T3, hP2X7R (full-length wild-type human P2X7 receptor). As to the kind of experiment: two-electrode voltage clamp, Xenopus oocytes. In kind it is cell-based. A general note: Two-electrode voltage clamp is typically applied to oocytes expressing channels or transporters.
The target of experiment [9] is T1, mP2X7R (full-length wild-type mouse P2X7 receptor). As to the kind of experiment: two-electrode voltage clamp, Xenopus oocytes. In kind it is cell-based.
The target of experiment [10] is T3, hP2X7R (full-length wild-type human P2X7 receptor). The experiment is described as follows: bio-layer interferometry, kinetic […] fit. It counts as binding. Background: BLI is a label-free optical method that tracks binding on a fibre tip over time.
For experiment [11], the target named is T2, rP2X7R (full-length wild-type rat P2X7 receptor). The experiment is described as follows: two-electrode voltage clamp, Xenopus oocytes. In kind it is cell-based.

Where two headings read alike, the source gives them in different places.

As a reminder, the IC50 is the concentration needed to halve the response being measured. A word on the inhibition: it is the share of the control response that was lost under treatment. Usually EC50 stands for the concentration giving half of the maximal effect. Read a high EC50 as lower potency in that assay. As a reminder, the Kd is the free concentration of one partner at which half of the binding sites on the other are occupied at equilibrium, for simple one-to-one binding. High values mean weaker binding, low ones tighter binding.

As for `CC12CC3CC1(C)C1(C)CC3(C(=O)NNc3ccccc3Cl)CC21C` [UB-MBX-46], the IC50 is 4.52 ± 0.72 nM in experiment [1] (agonist BzATP at EC80, pH 7.4) and 40.6 ± 10.4 nM in experiment [2] (agonist BzATP at EC80, pH 7.4).

As for `O=C(NNc1ccccc1Cl)C12C3C4C5C3C1C5C42` (stereo not drawn) [UB-ALT-P38], the IC50 in experiment [3] turned out to be 430 ± 64 nM.

Molecule `CC12CC3CC(C)(C1)CC(C(=O)NNc1ccccc1Cl)(C3)C2` [UB-ALT-P36] came in with a half-inhibitory concentration (IC50) in experiment [3] of 477 ± 170 nM.

With `O=C(NNc1ccccc1Cl)C12CC3CC(CC(C3)C1)C2` [UB-ALT-P30], the values for the inhibition at 10 µM in experiment [4], in experiment [5] and in [7] were 44 ± 14%, 29 ± 7% and 86 ± 9%, respectively. Besides, the IC50 was found to be 150 ± 27 nM in experiment [1], 120 ± 50 nM in experiment [2] and 18 ± 8.3 nM in [6].

Molecule `CC12CC3(C)CC(C)(C1)CC(C(=O)NNc1ccccc1Cl)(C2)C3` [UB-ALT-P37] returned an IC50 in experiment [3] greater than 1000 nM.

With `Nc1ncnc2c1ncn2[C@@H]1O[C@H](COP(=O)(O)OP(=O)(O)OP(=O)(O)O)[C@@H](O)[C@H]1O` [ATP], the concentration giving a half-maximal response (EC50) in experiment [8] is 89000 ± 8300 nM; in experiment [9], 70000 ± 17000 nM; in experiment [11] it was 34000 ± 8400 nM. The dissociation constant (Kd) in experiment [10] worked out at 650 ± 120 nM.
